Results as given in paper PMC6874683, “Pyrrothiogatain acts as an inhibitor of GATA family proteins and inhibits Th2 cell differentiation in vitro” (Scientific Reports, 2019).

Experiments:
[1] = tested on: Jurkat cells; assay: MTS assay (cytotoxicity); assay type: cell-based; conditions: 0 to 100 µM, 3 days
Description: Jurkat cells were cultured at 37 °C with 5% CO2 in RPMI 1640 Medium (cat#72400047; Thermo Fisher) in the presence or absence of pyrrothiogatain (0 to 100 µM). Cell viability was measured using a CellTiter 96® AQueous One Solution Cell Proliferation Assay (cat#G3582; Promega) according to the manufacturer’s protocol.

[2] = target: T1, RelA (Homo sapiens, UniProt Q04206); assay: AlphaScreen binding assay of RelA and its target DNA (control); conditions: second screen, 0 to 10 µM
T1 construct: FLAG; made in house; host or cells: wheat cell-free protein synthesis system (inferred from the general methods)
T1 sequence (Q04206 whole entry, species assumed): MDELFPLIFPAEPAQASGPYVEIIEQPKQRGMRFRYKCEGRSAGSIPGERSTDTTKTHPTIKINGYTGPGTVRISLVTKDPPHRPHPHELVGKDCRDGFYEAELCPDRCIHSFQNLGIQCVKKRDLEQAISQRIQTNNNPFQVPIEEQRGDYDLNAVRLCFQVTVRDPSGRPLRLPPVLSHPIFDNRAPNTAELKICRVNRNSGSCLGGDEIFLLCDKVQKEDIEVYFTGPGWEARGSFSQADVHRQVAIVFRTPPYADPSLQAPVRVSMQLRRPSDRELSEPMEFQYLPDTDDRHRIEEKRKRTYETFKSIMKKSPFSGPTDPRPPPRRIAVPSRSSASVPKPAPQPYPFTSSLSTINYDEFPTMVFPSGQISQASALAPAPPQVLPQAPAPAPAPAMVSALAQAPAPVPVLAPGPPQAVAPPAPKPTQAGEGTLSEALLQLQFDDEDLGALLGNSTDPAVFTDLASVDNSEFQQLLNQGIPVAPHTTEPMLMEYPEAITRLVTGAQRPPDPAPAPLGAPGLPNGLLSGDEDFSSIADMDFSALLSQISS
Description: Figure 2 Identification of a GATA3 inhibitor using the wheat cell-free drug screening system. (A) A flow chart of the high-throughput screening to identify the 3-(2,5-dimethyl-1H-pyrrol-1-yl)thiophene-2-carboxylic acid that inhibits the DNA-binding activity of GATA3. The 3-(2,5-dimethyl-1H-pyrrol-1-yl)thiophene-2-carboxylic acid was named pyrrothiogatain (pyrrole and thiofuran containing GATA3 inhibitor). (B) The results of the first screen using 9,600 compounds. In the assay, each chemical compound was used at a final concentration of 10 µM. (C) The results of the second screening that show the inhibition rate of pyrrothiogatain. The inhibition assay of GATA3 DNA-binding activity was performed in the presence of various concentrations of pyrrothiogatain (0 to 10 µM). Biotinylated FLAG-peptide was used as a control to measure the interference of compounds in the AlphaScreen assay. In addition, a binding assay of RelA and its target DNA was used as control for GATA3. (D) Electrophoretic mobility shift assay (EMSA) of GATA3 with its consensus motif containing oligonucleotide in the presence of various concentrations of pyrrothiogatain (0 to 100 µM). GATA3 consensus oligonucleotide labelled with ^32P was detected by autoradiography. […] In (B,D,E), all data are expressed as individual points of three independent experiments with error bars indicating standard deviation. […]

[3] = tested on: GATA3-dependent IL-5 promoter activation; assay: IL-5 promoter luciferase reporter assay in HEK293T cells; assay type: cell-based; conditions: PMA 30 ng/mL, 0 to 30 µM
Description: The IL-5 promoter activity was determined as previously described[22],[23]. In brief, HEK293T cells were co-transfected with a firefly luciferase reporter (pGL3-IL-5 promoter), a renilla luciferase plasmid, and an expression vector (pcDNA3.1) using TransIT-LTI Regent (Cat#MIR2304, Mirus). Six hours after transfection, cells were treated with pyrrothiogatain (0 to 30 µM) and PMA (30 ng/mL) for 18 hours. The luciferase activity was measured using a Dual-Luciferase Reporter Assay System (cat#E1910, Promega).

[4] = target: T2, GATA3-SOX4 interaction (Homo sapiens, UniProt P23771); assay: Immunoprecipitation of GATA3 and SOX4; assay type: binding; conditions: 0 to 100 µM
T2 construct: we synthesized the recombinant full-length GATA3 protein with an N-terminal FLAG tag using the wheat cell-free system; made in house; host or cells: wheat cell-free protein synthesis system (WEPRO1240 kit), BirA added for biotinylation
T2 sequence (P23771 whole entry): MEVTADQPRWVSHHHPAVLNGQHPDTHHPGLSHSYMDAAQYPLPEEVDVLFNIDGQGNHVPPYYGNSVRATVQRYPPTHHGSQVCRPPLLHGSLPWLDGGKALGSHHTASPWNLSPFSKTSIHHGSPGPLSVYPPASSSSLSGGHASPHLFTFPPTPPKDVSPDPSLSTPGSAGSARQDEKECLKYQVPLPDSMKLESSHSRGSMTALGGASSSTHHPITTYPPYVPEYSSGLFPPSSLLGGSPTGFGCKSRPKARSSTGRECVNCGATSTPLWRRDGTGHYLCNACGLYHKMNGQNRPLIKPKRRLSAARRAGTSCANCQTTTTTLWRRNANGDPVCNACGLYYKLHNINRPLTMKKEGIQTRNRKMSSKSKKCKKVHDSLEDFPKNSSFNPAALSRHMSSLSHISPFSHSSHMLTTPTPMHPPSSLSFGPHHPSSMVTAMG
Description: Co-immunoprecipitation analysis of GATA3 and SOX4 was conducted as follows. Immunoprecipitation of FLAG-tagged GATA3 in the presence of pyrrothiogatain (0 to 100 µM) was performed by mixing recombinant FLAG-GATA3 and AGIA-SOX4 with 10 µL of anti-FLAG M2 affinity agarose gel (cat#A2220, Sigma-Aldrich) by rotation at 4 °C for 2 h. The agarose gels were washed three times, and then the immunoprecipitated protein was detected by immunoblotting using anti-FLAG M2 antibody and anti-AGIA-HRP[36].

[5] = tested on: GATA3 expression; assay: Intracellular staining of GATA3, CD4+ T cells under IL-2 conditions; assay type: cell-based, mouse; conditions: 30 µM, two days
Description: The in vitro differentiated CD4^+ T cells were stimulated using an immobilized anti-TCR-β mAb (3 µg/ml, H57–597, BioLegend) for 6 h in the presence of monensin (2 µM). The cells were fixed with 4% paraformaldehyde (Cat#163–20145, Wako) and permeabilized with permeabilization buffer (50 mM NaCl, 5 mM EDTA, 0.02% NaN3, and 0.5% Triton X-100). Then, the cells were stained using the following antibodies, anti-IL-4-PE (Cat#504103, BioLegend, 1:50), anti-IL-5-APC (Cat#504305, BioLegend, 1:50), anti-IL-13-PE (Cat#12–7133–41, eBiosience, 1:50), anti-IFN-γ-FITC (Cat#562019, BD Biosciences, 1:500), and anti-IL-2-APC (Cat#503809, BioLegend, 1:50). For the intracellular staining of Gata3, the Foxp3/Transcription Factor Staining Buffer Kit (cat#TNB-0607, TONBO) was used according to the manufacturer’s protocol. Flow cytometry was performed using a Gallios Flow Cytometer instrument (Beckman Coulter) and a FACS Caliber instrument (BD Biosciences) and the results were analysed using the FlowJo software program (Tree Star, Ashland, OR, USA).
(D) Intracellular staining of GATA3 in CD4+ T cells stimulated with immobilized anti-TCRβ mAb plus anti-CD28 mAb under IL-2 conditions in the presence or absence of pyrrothiogatain (30 µM) for two days.

Interference with the RelA-DNA interaction [2]: without interfering
GATA3-SOX4 interaction by immunoprecipitation [4]: dose-dependent decrease
SMILES: Cc1ccc(C)n1-c1ccsc1C(=O)O [Pyrrothiogatain, 3-(2,5-dimethyl-1H-pyrrol-1-yl)thiophene-2-carboxylic acid]
Cell viability [1]: did not influence cell viability
GATA3-dependent transcriptional activation of the IL-5 promoter [3]: significantly suppressed
Expression of GATA3, protein level [5]: not influenced
